Data on three compounds can be found in patent publication US8067411B2, “Compounds” (AstraZeneca AB, priority 2006, dated 2011).

Molecules are shown by their SMILES.

The test deals with T1, Recombinant human TLR7 (Homo sapiens, UniProt Q9NYK1).
T1 construct: expressed in transfected cells; host or cells: HEK293 cell line stably expressing the pNiFty2-SEAP reporter plasmid; TLR7 in pUNO vector, blasticidin selection
T1 sequence (Q9NYK1 27-1049): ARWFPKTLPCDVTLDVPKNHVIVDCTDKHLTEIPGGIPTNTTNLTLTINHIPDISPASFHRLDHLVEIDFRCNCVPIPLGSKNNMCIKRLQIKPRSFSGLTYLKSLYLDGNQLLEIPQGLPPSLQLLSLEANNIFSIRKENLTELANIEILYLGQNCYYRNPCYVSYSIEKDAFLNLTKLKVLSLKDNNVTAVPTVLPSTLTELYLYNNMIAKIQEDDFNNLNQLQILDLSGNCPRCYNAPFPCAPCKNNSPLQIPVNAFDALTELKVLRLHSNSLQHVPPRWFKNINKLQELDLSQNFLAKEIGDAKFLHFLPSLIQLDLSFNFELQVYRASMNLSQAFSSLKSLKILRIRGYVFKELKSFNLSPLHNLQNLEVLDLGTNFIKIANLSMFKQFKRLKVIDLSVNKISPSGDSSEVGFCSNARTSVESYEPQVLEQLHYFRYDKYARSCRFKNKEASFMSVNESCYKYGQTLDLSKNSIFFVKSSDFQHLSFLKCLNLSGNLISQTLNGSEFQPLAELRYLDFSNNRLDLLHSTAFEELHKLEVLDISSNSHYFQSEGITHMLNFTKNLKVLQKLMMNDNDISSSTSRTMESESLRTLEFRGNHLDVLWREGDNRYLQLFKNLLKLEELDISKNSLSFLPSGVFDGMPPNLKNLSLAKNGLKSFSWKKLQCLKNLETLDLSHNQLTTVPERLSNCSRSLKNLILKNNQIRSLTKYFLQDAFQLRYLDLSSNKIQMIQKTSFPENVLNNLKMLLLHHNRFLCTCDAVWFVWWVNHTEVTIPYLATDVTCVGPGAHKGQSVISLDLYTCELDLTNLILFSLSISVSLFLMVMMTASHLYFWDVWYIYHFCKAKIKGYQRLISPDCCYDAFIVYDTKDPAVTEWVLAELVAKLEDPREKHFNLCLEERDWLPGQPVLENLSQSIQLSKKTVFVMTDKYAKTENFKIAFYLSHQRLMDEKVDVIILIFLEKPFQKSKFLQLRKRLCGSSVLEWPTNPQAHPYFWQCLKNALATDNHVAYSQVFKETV
Briefly: Human TLR7 assay (SEAP reporter in HEK293 cells). The conditions noted are these: log of the minimal effective concentration of compound to induce SEAP release; HEK293 pNiFty2-SEAP reporter cell line, overnight incubation at 37° C., 0.1% (v/v) DMSO. The class given is cell-based. The text has this:
Recombinant human TLR7 was stably expressed in a HEK293 cell line already stably expressing the pNiFty2-SEAP reporter plasmid; integration of the reporter gene was maintained by selection with the antibiotic zeocin. The most common variant sequence of human TLR7 (represented by the EMBL sequence AF240467) was cloned into the mammalian cell expression vector pUNO and transfected into this reporter cell-line. Transfectants with stable expression were selected using the antibiotic blasticidin. In this reporter cell-line, expression of secreted alkaline phosphatase (SEAP) is controlled by an NFkB/ELAM-1 composite promoter comprising five NFkB sites combined with the proximal ELAM-1 promoter. TLR signaling leads to the translocation of NFkB and activation of the promoter results in expression of the SEAP gene. TLR7-specific activation was assessed by determining the level of SEAP produced following overnight incubation of the cells at 37° C. with the standard compound in the presence of 0.1% (v/v) dimethylsulfoxide (DMSO). Concentration dependent induction of SEAP production by compounds was expressed as the log of the minimal effective concentration of compound to induce SEAP release (pMEC).
Regarding `CCCCOc1nc(N)c2[nH]c(=O)n(CCCN(CCCN3CCOCC3)Cc3ccc(-n4cncn4)cc3)c2n1` [Example 16, 6-Amino-2-butoxy-9-(3-{(3-morpholin-4-ylpropyl)[4-(1H-1,2,4-triazol-1-yl)benzyl]amino}propyl)-7,9-dihydro-8H-purin-8-one], the pMEC was found to be 7.4. Regarding `CCCCOc1nc(N)c2[nH]c(=O)n(CCCN(CCCN3CCOCC3)Cc3cc(OC)cc(OC)c3)c2n1` [Example 12, 6-Amino-2-butoxy-9-{3-[(3,5-dimethoxybenzyl)(3-morpholin-4-ylpropyl)amino]propyl}-7,9-dihydro-8H-purin-8-one], the pMEC is reported as more than 7.7.

`CCCCOc1nc(N)c2[nH]c(=O)n(CCCN(CCCN3CCOCC3)Cc3ccc(SC)cc3)c2n1` [Example 8, 6-Amino-2-butoxy-9-{3-[[4-(methylthio)benzyl] (3-morpholin-4-ylpropyl)amino]propyl}-7,9-dihydro-8H-purin-8-one]: the pMEC is reported as 7.2.
